Measured values from patent US20150094364A1, “METHOD OF USING THEAFLAVIN” (priority 2013, published 2015).
Values joined by “and” are separate entries in the source; they are usually repeats but may differ in a detail not shown here. Equal values may be shown once.

Key:
Format in all cases: in vivo, Wistar rats
[1] = tested on: Rats overdosed with ethanol (experimental model for human ALD); test: Liver markers MDA, GSH and TG in ethanol-fed rats (ALD model); details: for GSH / MDA / TG: rat liver, ethanol 30 days
Experimental: (§1) 6-week old male rats (Wistar rats) were stabilized and then divided into 5 groups with 10 rats per group (n=10). Rats overdosed with ethanol were used as an experimental model for human ALD. Four groups of rats were fed with ethanol at a dose of 6000 mg/kg BW (50% ethanol at 12 ml/kg BW) per day for 30 days. These four groups were divided into positive control, theaflavin (low), theaflavin (mid), and theaflavin (high). Theaflavin (capsule, Xiayie) was also fed to rat at a dose of 83 mg/kg BW (low), 250 mg/kg (mid), and 500 mg/kg (high). In addition, Fifth group was fed with water as a negative control. Animals were sacrificed after the 30-day study and livers were collected for further analyses.
Three liver markers, i.e., malondialdehyde (MDA, a marker of oxidative stress), glutathione (GSH), and triglyceride (TG) were measured.

[2] = Body weight, liver weight and liver/body ratio in ethanol-fed rats (ALD model); details: ethanol 6000 mg/kg BW per day; for Liver Weight / Liver body ratio: 30 days; for BW (ending): end of 30-day study
Experimental: as §1

[3] = tested on: Rats overdosed with ethanol (experimental model for human ALD); test: Liver histopathology (liver cell fat rating, fat color rating) in ethanol-fed rats (ALD model); parameters: Liver cell fat rating / Liver cell fat rating, sum / Fat color rating: scale not given here; details: for Fat color rating: n=10; for Liver cell fat rating: individual animals (ID 1-10); for Liver cell fat rating, sum: sum of 10 animals
Experimental: as §1

O=c1c(O)cc([C@H]2Oc3cc(O)cc(O)c3C[C@H]2O)cc2c([C@H]3Oc4cc(O)cc(O)c4C[C@H]3O)cc(O)c(O)c12 [Theaflavin, theaflavin]
GSH ([1]; 83 mg/kg BW theaflavin): 13.86 ± 1.80 mg/g | MDA ([1]; 83 mg/kg BW theaflavin): 1.32 ± 0.13 nmol/mg | TG ([1]; 83 mg/kg BW theaflavin): 0.62 ± 0.21 mmol/L | GSH ([1]; 250 mg/kg BW theaflavin): 13.91 ± 1.66 mg/g | MDA ([1]; 250 mg/kg BW theaflavin): 1.24 ± 0.49 nmol/mg | TG ([1]; 250 mg/kg BW theaflavin): 0.65 ± 0.14 mmol/L | GSH ([1]; 500 mg/kg BW theaflavin): 14.43 ± 0.69 mg/g | MDA ([1]; 500 mg/kg BW theaflavin): 1.23 ± 0.08 nmol/mg | TG ([1]; 500 mg/kg BW theaflavin): 0.64 ± 0.13 mmol/L | MDA when compared to positive controls ([1]; theaflavin (high) 500 mg/kg): lower | TG when compared to positive controls ([1]; theaflavin (high) 500 mg/kg): lower | MDA when compared to positive controls ([1]; theaflavin (mid) 250 mg/kg): lower | TG when compared to positive controls ([1]; theaflavin (mid) 250 mg/kg): lower | Liver Weight ([2]; 83 mg/kg BW theaflavin): 9.19 ± 0.88 g | Liver body ratio ([2]; 83 mg/kg BW theaflavin): 2.79 ± 0.22% | BW (ending) ([2]; 83 mg/kg BW theaflavin): 329.1 ± 19.17 g | BW (intermediate) ([2]; 83 mg/kg BW theaflavin): 256.1 ± 21.23 g | Liver Weight ([2]; 250 mg/kg BW theaflavin): 9.83 ± 1.12 g | Liver body ratio ([2]; 250 mg/kg BW theaflavin): 2.86 ± 0.23% | BW (ending) ([2]; 250 mg/kg BW theaflavin): 342.9 ± 21.99 g | BW (intermediate) ([2]; 250 mg/kg BW theaflavin): 266.3 ± 17.10 g | Liver Weight ([2]; 500 mg/kg BW theaflavin): 10.34 ± 1.32 g | Liver body ratio ([2]; 500 mg/kg BW theaflavin): 2.84 ± 0.27% | BW (ending) ([2]; 500 mg/kg BW theaflavin): 365.2 ± 44.39 g | BW (intermediate) ([2]; 500 mg/kg BW theaflavin): 272.3 ± 17.27 g | Fat color rating ([3]; 83 mg/kg BW theaflavin): 1.60 ± 0.70 | Fat color rating ([3]; 250 mg/kg BW theaflavin): 1.40 ± 0.70 | Fat color rating ([3]; 500 mg/kg BW theaflavin): 1.30 ± 0.82 | Liver cell fat rating ([3]; theaflavin (high) 500 mg/kg, 500 mg/kg): 1 (6×) and 0 and 3 and 2 (2×) | Liver cell fat rating ([3]; theaflavin (low) 83 mg/kg BW, 83 mg/kg): 1 (5×) and 3 and 2 (4×) | Liver cell fat rating ([3]; theaflavin (mid) 250 mg/kg, 250 mg/kg): 1 (4×) and 0 and 2 (5×) | Liver cell fat rating, sum ([3]; theaflavin (high) 500 mg/kg): 13 | Liver cell fat rating, sum ([3]; theaflavin (low) 83 mg/kg BW): 16 | Liver cell fat rating, sum ([3]; theaflavin (mid) 250 mg/kg): 14 | Fat color rating compared to positive control ([3]; theaflavin (high) 500 mg/kg): different readings | Liver cell fat rating compared to positive control ([3]; theaflavin (high) 500 mg/kg): different readings | Fat color rating compared to positive control ([3]; theaflavin (mid) 250 mg/kg): different readings | Liver cell fat rating compared to positive control ([3]; theaflavin (mid) 250 mg/kg): different readings
